Assay results as given in patent publication US5070210A, “Novel ketenimines as intermediates for insecticides” (ICI Americas Inc., priority 1990, dated 1991).

Tests used:
Assay type in all cases: in vivo
[1] = test system: Tobacco Budworm [Heliothis virescens (Fabricius)] eggs; assay: Tobacco budworm egg test; settings: 2-day old eggs, percent in solution
Method in brief: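 Paper towel patches bearing 2-day old eggs were dipped in acetone solutions of compound, then set in petri dishes over larval rearing medium at 78° F. Mortality was scored once all control eggs had hatched and larvae were feeding. LC50, from dosage-mortality curves, is given as percent compound in solution.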

[2] = test system: Aster Leafhopper [Macrosteles fascifrens (Stal)]; assay: Aster leafhopper insecticidal test; settings: adults/nymphs, percent in solution; 48 hours
Method in brief: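 Three ~10 cm oat seedlings per cup were dipped 2-3 seconds in 50-50 acetone-water compound solutions, dried, and caged with ten adult/nymph leafhoppers. Mortality was counted after 48 hours at concentrations from 0.05% downward. LC50, as percent compound in solution, came from dosage-mortality curves.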

[3] = test system: Cabbage Looper [Trichoplusia ni (Hubner)]; assay: Cabbage looper insecticidal test; settings: second-instar larvae, percent in solution; 3-5 days
Method in brief: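 Compounds in 50-50 acetone-water were applied by dipping squash cotyledons (about 1×1.5 in) for 2-3 s; dried leaves went into petri dishes on moist filter paper with 5 second-instar larvae under high humidity. Mortality was scored after 3-5 days; LC50 from dosage-mortality curves, as percent compound in solution.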

[4] = test system: Tobacco Budworm [Heliothis virescens (Fabricius)] larvae; assay: Tobacco budworm contact test; settings: second-instar larvae, percent in solution, 5 days
Method: (§1) The compounds in Tables 1 and 2 above were tested for insecticidal activity using the following testing procedures. LC50 values, based on the results of these tests and calculated according to dosage-mortality curves, are expressed in Table 3.
Tobacco Budworm [Heliothis virescens (Fabricius)]:
(a) Contact: Test compounds were diluted in a 50-50 acetone-water solution. Cotton (Gossypium sp.) cotyledons were immersed in the test solutions for 2-3 seconds and placed on a wire screen to dry. The dried leaves were placed in petri dishes containing a moistened piece of filter paper and infested with 5 second-instar tobacco budworm larvae. The dishes were placed in a high humidity chamber for 5 days, and percent mortality of the larvae recorded. Test concentrations ranged from 0.1% downward. The LC-50 values are expressed below in Table 3 under the heading "TBW-C" in terms of percent of the test compound in the solution.

[5] = test system: Housefly [Musca domestica]; assay: Housefly insecticidal test; settings: μg per 25 female flies; mortality after 48 hours
Method in brief: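 Dose range started at 100 μg per 25 female flies and went downward. Insects (1-2 days old) contacted a dried acetone/peanut-oil deposit in dishes; LC50 values come from dosage-mortality curves at 48 h.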

[6] = test system: Beet Armyworm (Spodoptera exigua); assay: Beet armyworm insecticidal test; settings: second-instar larvae, percent in solution; five days
Method: as §1
Beet Armyworm (Spodoptera exigua):
Test compounds were diluted in a 50-50 acetone-water solution. Young leaves of sugar beets (Beta vulgaris) were immersed in the test solutions for 2-3 seconds and placed on a wire screen to dry. The dried leaves were placed in petri dishes containing a moistened filter paper and infested with five second-instar beet armyworm larvae. The dishes were placed in a high humidity chamber. Mortality of the larvae was recorded five days later. Test concentrations ranged from 0.1% downward. The LC-50 values are expressed below in Table 3 under the heading "BAW" in terms of percent of the test compound in solution.

[7] = test system: Maize weevil [Sitophilus Zeamais (Motschulsky)]; assay: Maize weevil insecticidal test; settings: adult weevils, percent in solution; 48 hours
Method in brief: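 LC50, in percent of compound in solution, was derived from dosage-mortality curves after 48 h at about 25 °C. Ten adult weevils per container fed on four corn seeds briefly immersed in acetone:water (50:50) solutions of up to 0.01% and dried.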

SMILES	LC50, TBW, E (TBW-E) [1]	LC50, LH [2]	LC50, CL [3]	LC50, TBW, C (TBW-C) [4]	LC50, HF [5]	LC50, BAW [6]	LC50, MW [7]
CC(C)C(=Nc1ccc(Cl)cc1)OCc1cccc(Oc2ccccc2)c1 [Compound 2]	0.04%	0.0003%	0.006%	0.0009%	4.5 µg	0.01%	–
Clc1ccc(N=C(OCc2cccc(Oc3ccccc3)c2)C(Cl)Cl)c(Cl)c1 [Compound 4]	> 0.1%	> 0.05%	0.007%	0.05%	100 µg	0.04%	–
CC(C)C(=Nc1cccc(Cl)c1)OCc1cccc(Oc2ccccc2)c1 [Compound 7]	0.009%	0.0002%	0.006%	–	8 µg	0.006%	–
CC(C)C(=Nc1ccc(Cl)c(Cl)c1)OCc1cccc(Oc2ccccc2)c1 [Compound 14]	–	0.001%	0.004%	–	40 µg	0.005%	0.01%
CC(C)C(=Nc1ccc(Cl)cc1)OCc1ccc(F)c(Oc2ccccc2)c1 [Compound 23]	0.017%	–	0.0005%	–	5 µg	0.001%	–
Clc1ccccc1N=C(OCc1cccc(Oc2ccccc2)c1)C(Cl)Cl [Compound 34]	> 0.1%	–	0.015%	0.01%	> 100 µg	0.015%	–
CC(C)C(=Nc1ccc(F)cc1)OCc1cccc(Oc2ccccc2)c1 [Compound 46]	0.016%	0.002%	0.003%	–	7 µg	0.006%	–
CC(C)C(=Nc1ccc(F)cc1)OCc1ccc(F)c(Oc2ccccc2)c1 [Compound 53]	0.02%	–	0.0005%	0.0025%	2 µg	0.003%	–
CC(C)C(=Nc1cccc(C(F)(F)F)c1)OCc1cccc(Oc2ccccc2)c1 [Compound 67]	0.01%	0.00027%	0.001%	–	15 µg	0.006%	–
Cc1c(Cl)cccc1N=C(OCc1cccc(Oc2ccccc2)c1)C(Cl)Cl [Compound 97]	0.04%	–	0.002%	0.004%	10 µg	0.01%	–
CCC(C)C(=Nc1ccc(F)c(Cl)c1)OCc1cccc(Oc2ccccc2)c1 (centres unmarked) [Compound 122]	0.05%	> 0.05%	0.0007%	–	37 µg	0.01%	> 0.01%
Cc1ccc(N=C(OCc2cccc(Oc3ccccc3)c2)C(Cl)Cl)cc1 [Compound 139]	0.05%	–	0.015%	0.005%	4.2 µg	0.007%	–
O=[N+]([O-])c1ccc(N=C(OCc2cccc(Oc3ccccc3)c2)C(Cl)Cl)cc1 [Compound 173]	> 0.1%	–	0.02%	> 0.1%	18 µg	> 0.1%	–
O=[N+]([O-])c1cccc(N=C(OCc2cccc(Oc3ccccc3)c2)C(Cl)Cl)c1 [Compound 174]	> 0.1%	–	0.03%	–	17 µg	0.1%	–
CC(C)C(=Nc1ccc(Br)c(F)c1)OCc1ccc(F)c(Oc2ccc(F)cc2)c1 [Compound 282]	0.02%	–	0.00007%	0.0007%	16 µg	0.0025%	0.008%
CC(C)C(=Nc1ccc2c(c1)OC(C)(C)O2)OCc1ccc(F)c(Oc2ccc(F)cc2)c1 [Compound 283]	0.016%	–	0.00009%	0.0009%	23 µg	0.0013%	> 0.01%
CC(C)C(=Nc1ccc(F)c(I)c1)OCc1ccc(F)c(Oc2ccc(Cl)cc2)c1 [Compound 326]	0.03%	–	0.00015%	0.0005%	25 µg	0.004%	–
CC(C)C(=Nc1ccc(F)c(Cl)c1F)OCc1cccc(Oc2ccccc2)c1 [Compound 332]	0.015%	–	0.00045%	0.00075%	7 µg	0.0012%	–
CC(C)C(=Nc1ccc(Br)cc1)OCc1ccc(F)c(Oc2ccc(F)cc2)c1 [Compound 333]	0.025%	–	0.00024%	0.00075%	15 µg	> 0.1%	> 0.01%
CC(C)C(=Nc1ccc(I)cc1)OCc1ccc(F)c(Oc2ccc(F)cc2)c1 [Compound 335]	0.05%	–	0.00027%	0.00025%	34 µg	> 0.1%	> 0.01%
CC(C)C(=Nc1ccc(F)c(Cl)c1)OCc1cc(Oc2ccc(F)cc2)c(F)cc1F [Compound 343]	> 0.1%	–	0.00027%	0.00025%	40 µg	> 0.1%	> 0.01%
CC(C)C(=Nc1ccc2c(c1)OC(F)(F)O2)OCc1cccc(Oc2ccc(Cl)cc2)c1 [Compound 450]	0.015%	–	0.00016%	0.0001%	72 µg	0.005%	0.01%
CC(C)C(=Nc1ccc(F)c(Cl)c1)OCc1cccc(Oc2ccc(Cl)cc2)n1 [Compound 463]	0.0075%	0.0003%	0.00009%	–	8 µg	0.0024%	0.01%
CC(C)C(=Nc1ccc(F)c(Cl)c1F)OCc1cccc(Oc2ccc(Cl)cc2)n1 [Compound 500]	0.02%	–	0.00009%	0.00075%	16 µg	0.002%	–
CC(C)C(=Nc1ccc(F)c(Cl)c1F)OCc1cccc(Oc2ccc(F)cc2)n1 [Compound 521]	> 0.1%	0.05%	0.00005%	0.0005%	7.5 µg	–	0.01%
CC(C)C(=Nc1ccc(Cl)c(Cl)c1)OCc1cccc(Oc2ccc(Cl)cc2)n1 [Compound 523]	> 0.1%	> 0.05%	0.00015%	0.0002%	22 µg	–	> 0.01%
CC(C)C(=Nc1ccc(C(F)(F)F)cc1)OCc1cccc(Oc2ccc(Cl)cc2)n1 [Compound 530]	0.005%	0.05%	0.00027%	0.00005%	9.8 µg	–	> 0.01%
CC(C)C(=Nc1ccc(F)c(Cl)c1)OCc1cccc(Oc2ccc(F)c(F)c2)n1 [Compound 531]	> 0.1%	> 0.05%	> 0.1%	0.00037%	5 µg	–	> 0.01%
